Each compound was assayed on CAPAN-1 (assay: Cytotoxicity against human Capan1 cells assessed as reduction in cell viability by MTT assay).
Format: functional, cell-based

SMILES	IC50 [µM]
CCn1cc(-c2nc(SCc3nnc(-c4ccc(Cl)cc4)o3)n(CN(C)C)n2)c(=O)c2cc(F)c(N3CCN(C)CC3)cc21	1.5 to 24.5
CCn1cc(-c2nc(SCc3nnc(-c4ccc(OC)cc4)o3)n(CN(C)C)n2)c(=O)c2cc(F)c(N3CCN(C)CC3)cc21	1.5 to 24.5
CN1CCN(c2cc3c(cc2F)c(=O)c(-c2nc4scc(-c5ccccc5)n4n2)cn3C2CC2)CC1	3.6 to 56.8
CCn1cc(-c2nnc(SCc3nnc(-c4ccc([N+](=O)[O-])cc4)o3)[nH]2)c(=O)c2cc(F)c(N3CCN(C)CC3)cc21	3.8 to 35.2
CCn1cc(-c2nnc(SCc3nnc(-c4ccc(Cl)cc4)o3)[nH]2)c(=O)c2cc(F)c(N3CCN(C)CC3)cc21	3.8 to 35.2
CCn1cc(-c2nnc(SCc3nnc(-c4ccc(OC)cc4)o3)[nH]2)c(=O)c2cc(F)c(N3CCN(C)CC3)cc21	3.8 to 35.2
CN1CCN(c2cc3c(cc2F)c(=O)c(-c2nc4scc(-c5ccc(Br)cc5)n4n2)cn3C2CC2)CC1	3.6 to 56.8
CC1COc2c(N3CCN(C)CC3)c(F)cc3c(=O)c(-c4nc5scc(-c6ccc([N+](=O)[O-])cc6)n5n4)cn1c23 (stereo not given)	3.6 to 56.8
CN1CCN(c2cc3c(cc2F)c(=O)c(-c2nc4scc(-c5ccc(F)cc5)n4n2)cn3C2CC2)CC1	3.6 to 56.8
COc1ccc(-c2csc3nc(-c4cn(C5CC5)c5cc(N6CCN(C)CC6)c(F)cc5c4=O)nn23)cc1	3.6 to 56.8
CCn1cc(-c2nc(SCc3nnc(-c4cc(OC)c(OC)c(OC)c4)o3)n(CN(C)C)n2)c(=O)c2cc(F)c(N3CCN(C)CC3)cc21	1.5 to 24.5

Each compound was assayed on Hep 3B2 (assay: Cytotoxicity against human Hep3B cells assessed as reduction in cell viability by MTT assay).
Format: functional, cell-based

SMILES	IC50 [µM]
CCn1cc(-c2nc(SCc3nnc(-c4ccc(Cl)cc4)o3)n(CN(C)C)n2)c(=O)c2cc(F)c(N3CCN(C)CC3)cc21	1.5 to 24.5
CCn1cc(-c2nc(SCc3nnc(-c4ccc(OC)cc4)o3)n(CN(C)C)n2)c(=O)c2cc(F)c(N3CCN(C)CC3)cc21	1.5 to 24.5
CN1CCN(c2cc3c(cc2F)c(=O)c(-c2nc4scc(-c5ccccc5)n4n2)cn3C2CC2)CC1	3.6 to 56.8
CCn1cc(-c2nnc(SCc3nnc(-c4ccc([N+](=O)[O-])cc4)o3)[nH]2)c(=O)c2cc(F)c(N3CCN(C)CC3)cc21	3.8 to 35.2
CCn1cc(-c2nnc(SCc3nnc(-c4ccc(Cl)cc4)o3)[nH]2)c(=O)c2cc(F)c(N3CCN(C)CC3)cc21	3.8 to 35.2
CCn1cc(-c2nnc(SCc3nnc(-c4ccc(OC)cc4)o3)[nH]2)c(=O)c2cc(F)c(N3CCN(C)CC3)cc21	3.8 to 35.2
CN1CCN(c2cc3c(cc2F)c(=O)c(-c2nc4scc(-c5ccc(Br)cc5)n4n2)cn3C2CC2)CC1	3.6 to 56.8
CC1COc2c(N3CCN(C)CC3)c(F)cc3c(=O)c(-c4nc5scc(-c6ccc([N+](=O)[O-])cc6)n5n4)cn1c23 (stereo not given)	3.6 to 56.8
CN1CCN(c2cc3c(cc2F)c(=O)c(-c2nc4scc(-c5ccc(F)cc5)n4n2)cn3C2CC2)CC1	3.6 to 56.8
COc1ccc(-c2csc3nc(-c4cn(C5CC5)c5cc(N6CCN(C)CC6)c(F)cc5c4=O)nn23)cc1	3.6 to 56.8
CCn1cc(-c2nc(SCc3nnc(-c4cc(OC)c(OC)c(OC)c4)o3)n(CN(C)C)n2)c(=O)c2cc(F)c(N3CCN(C)CC3)cc21	1.5 to 24.5

What follows are compounds tested on HL-60 (assay: Cytotoxicity against human HL60 cells assessed as reduction in cell viability by MTT assay).
Format: functional, cell-based

SMILES	IC50 [µM]
CCn1cc(-c2nc(SCc3nnc(-c4ccc(Cl)cc4)o3)n(CN(C)C)n2)c(=O)c2cc(F)c(N3CCN(C)CC3)cc21	1.5 to 24.5
CCn1cc(-c2nc(SCc3nnc(-c4ccc(OC)cc4)o3)n(CN(C)C)n2)c(=O)c2cc(F)c(N3CCN(C)CC3)cc21	1.5 to 24.5
CN1CCN(c2cc3c(cc2F)c(=O)c(-c2nc4scc(-c5ccccc5)n4n2)cn3C2CC2)CC1	3.6 to 56.8
CCn1cc(-c2nnc(SCc3nnc(-c4ccc([N+](=O)[O-])cc4)o3)[nH]2)c(=O)c2cc(F)c(N3CCN(C)CC3)cc21	3.8 to 35.2
CCn1cc(-c2nnc(SCc3nnc(-c4ccc(Cl)cc4)o3)[nH]2)c(=O)c2cc(F)c(N3CCN(C)CC3)cc21	3.8 to 35.2
CCn1cc(-c2nnc(SCc3nnc(-c4ccc(OC)cc4)o3)[nH]2)c(=O)c2cc(F)c(N3CCN(C)CC3)cc21	3.8 to 35.2
CN1CCN(c2cc3c(cc2F)c(=O)c(-c2nc4scc(-c5ccc(Br)cc5)n4n2)cn3C2CC2)CC1	3.6 to 56.8
CC1COc2c(N3CCN(C)CC3)c(F)cc3c(=O)c(-c4nc5scc(-c6ccc([N+](=O)[O-])cc6)n5n4)cn1c23 (stereo not given)	3.6 to 56.8
CN1CCN(c2cc3c(cc2F)c(=O)c(-c2nc4scc(-c5ccc(F)cc5)n4n2)cn3C2CC2)CC1	3.6 to 56.8
COc1ccc(-c2csc3nc(-c4cn(C5CC5)c5cc(N6CCN(C)CC6)c(F)cc5c4=O)nn23)cc1	3.6 to 56.8
CCn1cc(-c2nc(SCc3nnc(-c4cc(OC)c(OC)c(OC)c4)o3)n(CN(C)C)n2)c(=O)c2cc(F)c(N3CCN(C)CC3)cc21	1.5 to 24.5

These compounds were tested on SMMC-7721 (assay: Cytotoxicity against human SMMC7721 cells assessed as reduction in cell viability by MTT assay).
Format: functional, cell-based

SMILES	IC50 [µM]
CCn1cc(-c2nc(SCc3nnc(-c4ccc(Cl)cc4)o3)n(CN(C)C)n2)c(=O)c2cc(F)c(N3CCN(C)CC3)cc21	1.5 to 24.5
CCn1cc(-c2nc(SCc3nnc(-c4ccc(OC)cc4)o3)n(CN(C)C)n2)c(=O)c2cc(F)c(N3CCN(C)CC3)cc21	1.5 to 24.5
CN1CCN(c2cc3c(cc2F)c(=O)c(-c2nc4scc(-c5ccccc5)n4n2)cn3C2CC2)CC1	3.6 to 56.8
CCn1cc(-c2nnc(SCc3nnc(-c4ccc([N+](=O)[O-])cc4)o3)[nH]2)c(=O)c2cc(F)c(N3CCN(C)CC3)cc21	3.8 to 35.2
CCn1cc(-c2nnc(SCc3nnc(-c4ccc(Cl)cc4)o3)[nH]2)c(=O)c2cc(F)c(N3CCN(C)CC3)cc21	3.8 to 35.2
CCn1cc(-c2nnc(SCc3nnc(-c4ccc(OC)cc4)o3)[nH]2)c(=O)c2cc(F)c(N3CCN(C)CC3)cc21	3.8 to 35.2
CN1CCN(c2cc3c(cc2F)c(=O)c(-c2nc4scc(-c5ccc(Br)cc5)n4n2)cn3C2CC2)CC1	3.6 to 56.8
CC1COc2c(N3CCN(C)CC3)c(F)cc3c(=O)c(-c4nc5scc(-c6ccc([N+](=O)[O-])cc6)n5n4)cn1c23 (stereo not given)	3.6 to 56.8
CN1CCN(c2cc3c(cc2F)c(=O)c(-c2nc4scc(-c5ccc(F)cc5)n4n2)cn3C2CC2)CC1	3.6 to 56.8
COc1ccc(-c2csc3nc(-c4cn(C5CC5)c5cc(N6CCN(C)CC6)c(F)cc5c4=O)nn23)cc1	3.6 to 56.8
CCn1cc(-c2nc(SCc3nnc(-c4cc(OC)c(OC)c(OC)c4)o3)n(CN(C)C)n2)c(=O)c2cc(F)c(N3CCN(C)CC3)cc21	1.5 to 24.5

Each compound was assayed on L1210 (assay: Cytotoxicity against mouse L1210 cells assessed as reduction in cell viability by MTT assay).
Format: functional, cell-based

SMILES	IC50 [µM]
CCn1cc(-c2nc(SCc3nnc(-c4ccc(Cl)cc4)o3)n(CN(C)C)n2)c(=O)c2cc(F)c(N3CCN(C)CC3)cc21	1.5 to 24.5
CCn1cc(-c2nc(SCc3nnc(-c4ccc(OC)cc4)o3)n(CN(C)C)n2)c(=O)c2cc(F)c(N3CCN(C)CC3)cc21	1.5 to 24.5
CN1CCN(c2cc3c(cc2F)c(=O)c(-c2nc4scc(-c5ccccc5)n4n2)cn3C2CC2)CC1	3.6 to 56.8
CCn1cc(-c2nnc(SCc3nnc(-c4ccc([N+](=O)[O-])cc4)o3)[nH]2)c(=O)c2cc(F)c(N3CCN(C)CC3)cc21	3.8 to 35.2
CCn1cc(-c2nnc(SCc3nnc(-c4ccc(Cl)cc4)o3)[nH]2)c(=O)c2cc(F)c(N3CCN(C)CC3)cc21	3.8 to 35.2
CCn1cc(-c2nnc(SCc3nnc(-c4ccc(OC)cc4)o3)[nH]2)c(=O)c2cc(F)c(N3CCN(C)CC3)cc21	3.8 to 35.2
CN1CCN(c2cc3c(cc2F)c(=O)c(-c2nc4scc(-c5ccc(Br)cc5)n4n2)cn3C2CC2)CC1	3.6 to 56.8
CC1COc2c(N3CCN(C)CC3)c(F)cc3c(=O)c(-c4nc5scc(-c6ccc([N+](=O)[O-])cc6)n5n4)cn1c23 (stereo not given)	3.6 to 56.8
CN1CCN(c2cc3c(cc2F)c(=O)c(-c2nc4scc(-c5ccc(F)cc5)n4n2)cn3C2CC2)CC1	3.6 to 56.8
COc1ccc(-c2csc3nc(-c4cn(C5CC5)c5cc(N6CCN(C)CC6)c(F)cc5c4=O)nn23)cc1	3.6 to 56.8
CCn1cc(-c2nc(SCc3nnc(-c4cc(OC)c(OC)c(OC)c4)o3)n(CN(C)C)n2)c(=O)c2cc(F)c(N3CCN(C)CC3)cc21	1.5 to 24.5

Source: ChEMBL document CHEMBL4613209, “Quinolone hybrids and their anti-cancer activities: An overview” (Eur J Med Chem, 2019)
